From patent US12187684B2, “Benzimidazole derivatives as modulators of retinoid-related orphan receptor gamma (RORγ) and pharmaceutical use thereof” (Jiangsu Hengrui Medicine Co., Ltd., priority 2018, dated 2025)

What was measured:
[1] = system: IL-17 production, human PBMC cells; assay: IL-17 production assay using human PBMC; type: cell-based; settings: Homo sapiens, PBMC, 72 h, human PBMC stimulated by cytostim for 3 days, IL-17 ELISA of supernatant
How it was run: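 Cryopreserved human PBMCs, 1×10^5 per well in TexMACS, were treated with compound or vehicle (<0.5% DMSO) and stimulated with Cytostim (10 μL/mL) for 3 days at 37 °C. Supernatant IL-17 was measured by ELISA. IC50 was taken from concentration versus percent inhibition.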

RORγ LBD-GST tagged = target: T1, RORγ LBD-GST tagged (Homo sapiens, UniProt P51449); assay: LanthaScreen TR-FRET RORγ coactivator assay; type: biochemical; settings: Fluorescein-D22 coactivator peptide, 1 hour room temperature
T1 construct: RORγ LBD-GST tagged (Cat No. RORC-114H, Creative Biomart); purchased Creative Biomart RORC-114H
T1 sequence (P51449 269-508 limits assumed): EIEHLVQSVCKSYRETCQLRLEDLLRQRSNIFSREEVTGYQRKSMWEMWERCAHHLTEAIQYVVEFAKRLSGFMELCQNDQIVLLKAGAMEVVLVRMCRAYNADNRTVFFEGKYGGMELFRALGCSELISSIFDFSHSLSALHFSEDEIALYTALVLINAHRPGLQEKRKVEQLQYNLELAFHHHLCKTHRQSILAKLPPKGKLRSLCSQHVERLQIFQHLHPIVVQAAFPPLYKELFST
How it was run: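 GST-tagged RORγ LBD (25 ng/reaction) was incubated in coregulator buffer D with 5 mM DTT and compound (top 3 μM, 7-fold steps, 7 doses), then with a mix containing 0.6 μM fluorescein-D22 peptide and 8 nM Tb anti-GST antibody. After 1 h at room temperature in the dark, 520/495 nm TR-FRET was read. IC50 came from log concentration versus percent inhibition.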

For `CC(C)Oc1ccccc1-c1c(Cl)cc2nc(C(O)c3ccc(S(=O)(=O)CC4CC4)cc3)[nH]c2c1Cl` (centres unmarked) [Example 133, (4-((cyclopropylmethyl)sulfonyl)phenyl)(5,7-dichloro-6-(2-isopropoxyphenyl)-1H-benzo[d]imidazol-2-yl)methanol], the IC50 [1] was 0.027 µM and the IC50 (RORγ LBD-GST tagged) was 0.024 µM.

Work on `CC(C)Oc1ccccc1-c1c(Cl)cc2nc(C(CO)c3ccc(S(=O)(=O)CC4CC4)cc3)[nH]c2c1Cl` (centres unmarked) [Example 134, 2-(4-((cyclopropylmethyl)sulfonyl)phenyl)-2-(5,7-dichloro-6-(2-isopropoxyphenyl)-1H-benzo[d]imidazol-2-yl)ethanol] yielded an IC50 [1] of 0.003 µM and an IC50 (RORγ LBD-GST tagged) of 0.006 µM.

`COc1ccccc1-c1c(Cl)cc2nc(C(CO)c3ccc(S(=O)(=O)CC4CC4)cc3)[nH]c2c1Cl` (centres unmarked) [Example 135, 2-(4-((cyclopropylmethyl)sulfonyl)phenyl)-2-(5,7-dichloro-6-(2-methoxyphenyl)-1H-benzo[d]imidazol-2-yl)ethanol] showed an IC50 [1] of 0.014 µM and an IC50 (RORγ LBD-GST tagged) of 0.039 µM.

Work on `CCOc1ccccc1-c1c(Cl)cc2nc(Cc3ccc(S(=O)(=O)CC4CC4)cc3)[nH]c2c1Cl` [Example 136, 5,7-dichloro-2-(4-((cyclopropylmethyl)sulfonyl)benzyl)-6-(2-ethoxyphenyl)-1H-benzo[d]imidazole] yielded an IC50 [1] of 0.014 µM and an IC50 (RORγ LBD-GST tagged) of 0.005 µM.

`CCOc1ccccc1-c1c(Cl)cc2nc(C(CO)c3ccc(S(=O)(=O)CC4CC4)cc3)[nH]c2c1Cl` (centres unmarked) [Example 137, 2-(4-((cyclopropylmethyl)sulfonyl)phenyl)-2-(5,7-dichloro-6-(2-ethoxyphenyl)-1H-benzo[d]imidazol-2-yl)ethanol] gave an IC50 [1] of 0.004 µM and an IC50 (RORγ LBD-GST tagged) of 0.013 µM.

In the case of `CCOc1ccccc1-c1c(Cl)cc2nc(C(O)c3ccc(S(=O)(=O)CC4CC4)cc3)[nH]c2c1Cl` (centres unmarked) [Example 138, (4-((cyclopropylmethyl)sulfonyl)phenyl)(5,7-dichloro-6-(2-ethoxyphenyl)-1H-benzo[d]imidazol-2-yl)methanol], the IC50 [1] is reported as 0.009 µM and the IC50 (RORγ LBD-GST tagged) is reported as 0.018 µM.

`NC(=O)CC(c1ccc(S(=O)(=O)CC2CC2)cc1)c1nc2cc(Cl)c(-c3ccccc3OC(F)F)cc2[nH]1` (centres unmarked) [Example 141, 3-(5-chloro-6-(2-(difluoromethoxy)phenyl)-1H-benzo[d]imidazol-2-yl)-3-(4-((cyclopropylmethyl)sulfonyl)phenyl)propanamide] was tested, and the IC50 [1] was 0.02 µM and the IC50 (RORγ LBD-GST tagged) was 0.01 µM.

For `O=S(=O)(CC1CC1)c1ccc(C(CCO)c2nc3cc(Cl)c(-c4ccccc4OC(F)F)cc3[nH]2)cc1` (centres unmarked) [Example 142, 3-(5-chloro-6-(2-(difluoromethoxy)phenyl)-1H-benzo[d]imidazol-2-yl)-3-(4-((cyclopropylmethyl)sulfonyl)phenyl)propan-1-ol], the IC50 [1] was 0.028 µM and the IC50 (RORγ LBD-GST tagged) was 0.013 µM.

With `CC(C)Oc1ccccc1-c1cc2nc(C(CC(N)=O)c3ccc(S(=O)(=O)CC4CC4)cc3)[nH]c2cc1Cl` (centres unmarked) [Example 143, 3-(5-chloro-6-(2-isopropoxyphenyl)-1H-benzo[d]imidazol-2-yl)-3-(4-((cyclopropylmethyl)sulfonyl)phenyl)propanamide] the IC50 [1] was 0.027 µM and the IC50 (RORγ LBD-GST tagged) was 0.01 µM.

For `CC(C)Oc1ccccc1-c1cc2nc(C(CCO)c3ccc(S(=O)(=O)CC4CC4)cc3)[nH]c2cc1Cl` (centres unmarked) [Example 144, 3-(5-chloro-6-(2-isopropoxyphenyl)-1H-benzo[d]imidazol-2-yl)-3-(4-((cyclopropylmethyl)sulfonyl)phenyl)propan-1-ol], the IC50 [1] was 0.023 µM and the IC50 (RORγ LBD-GST tagged) was 0.011 µM.

`CCS(=O)(=O)c1ccc(C(CCO)c2nc3c(Cl)c(N4CCC(F)(F)CC4)c(Cl)cc3[nH]2)cc1` (centres unmarked) [Example 145, 3-(4,6-dichloro-5-(4,4-difluoropiperidin-1-yl)-1H-benzo[d]imidazol-2-yl)-3-(4-(ethylsulfonyl)phenyl)propan-1-ol] was tested, and the IC50 [1] was 0.01 µM and the IC50 (RORγ LBD-GST tagged) was 0.068 µM.

With `NC(=O)CC(c1ccc(S(=O)(=O)CC2CC2)cc1)c1nc2cc(Cl)c(N3CCC(F)(F)CC3)c(Cl)c2[nH]1` (centres unmarked) [Example 154, 3-(4-((cyclopropylmethyl)sulfonyl)phenyl)-3-(5,7-dichloro-6-(4,4-difluoropiperidin-1-yl)-1H-benzo[d]imidazol-2-yl)propanamide] the IC50 [1] was 0.077 µM and the IC50 (RORγ LBD-GST tagged) was 0.049 µM.

`O=S(=O)(CC1CC1)c1ccc(C(CCO)c2nc3cc(Cl)c(N4CCC(F)(F)CC4)c(Cl)c3[nH]2)cc1` (centres unmarked) [Example 157, 3-(4-((cyclopropylmethyl)sulfonyl)phenyl)-3-(5,7-dichloro-6-(4,4-difluoropiperidin-1-yl)-1H-benzo[d]imidazol-2-yl)propan-1-ol] showed an IC50 [1] of 0.022 µM and an IC50 (RORγ LBD-GST tagged) of 0.007 µM.

For `NC(=O)CC(c1ccc(S(=O)(=O)CC2CC2)cc1)c1nc2cc(Cl)c(-c3ccccc3OC(F)F)c(Cl)c2[nH]1` (centres unmarked) [Example 158, 3-(4-((cyclopropylmethyl)sulfonyl)phenyl)-3-(5,7-dichloro-6-(2-(difluoromethoxy)phenyl)-1H-benzo[d]imidazol-2-yl)propanamide], the IC50 [1] was 0.187 µM and the IC50 (RORγ LBD-GST tagged) was 0.005 µM.

For `O=S(=O)(CC1CC1)c1ccc(C(CCO)c2nc3cc(Cl)c(-c4ccccc4OC(F)F)c(Cl)c3[nH]2)cc1` (centres unmarked) [Example 159, 3-(4-((cyclopropylmethyl)sulfonyl)phenyl)-3-(5,7-dichloro-6-(2-(difluoromethoxy)phenyl)-1H-benzo[d]imidazol-2-yl)propan-1-ol], the IC50 [1] was 0.01 µM and the IC50 (RORγ LBD-GST tagged) was 0.005 µM.

With `O=S(=O)(CC1CC1)c1ccc(C(CCN2CCOCC2)c2nc3cc(Cl)c(N4CCC(F)(F)CC4)c(Cl)c3[nH]2)cc1` (centres unmarked) [Example 170, 4-(3-(4-((cyclopropylmethyl)sulfonyl)phenyl)-3-(5,7-dichloro-6-(4,4-difluoropiperidin-1-yl)-1H-benzo[d]imidazol-2-yl)propyl)morpholine] the IC50 [1] was 0.43 µM and the IC50 (RORγ LBD-GST tagged) was 0.71 µM.
